Laboratory results taken from EP4538258A1, “IMIDAZOLIDINYL VANILLIC ACID ETHER DERIVATIVE AND USE THEREOF” (Hefei Institute of Pharmaceutical Industry Co., Ltd., priority 2022, dated 2023).
Structures can show the parent of a compound that is named as a salt. Where two headings read alike, the source gives them in different places.

Experiments:
[1] = tested on: arteriovenous bypass thrombi; test: Antithrombotic activity in vivo: arteriovenous bypass thrombosis in rats; design: species or system SD rats; settings: single gavage 15 mg/kg; for inhibition at 15 mg/kg: Rattus norvegicus, po, vs blank control; for Thrombus wet weight: 1 h after administration, blood flow 15 min; for Thrombus wet weight / Thrombus dry weight: x±s, n=8; for Thrombus dry weight: thread dried at 70°C
Method: 104 SD rats (purchased from Weitong Lihua Experimental Animal Technology Co., Ltd., certificate number: 20211103Aazz0619000910), male, weighing 180-220 g, were randomly divided into 13 groups according to body weight after 7 days of adaptive feeding, with 8 rats in each group, namely, normal control group, compound A group, compound A methyl ester group, and Example 1-10 compound groups respectively. Each group was given corresponding drugs by gavage (dosage was 15 mg/kg), and the normal control group was given an equal volume of solvent, all of which were given by single gavage. One hour after the last administration, the rats were anesthetized with 3% chloral hydrate intraperitoneally, and the right common carotid artery and left external jugular vein were isolated in a supine position. A polyethylene tube was taken with an inner diameter of 1.5 mm and a length of 10 cm, a 6 cm long silk thread (preweighed) was inserted into it, and the polyethylene tube was filled with normal saline solution of heparin (50 U/ml). One end of the polyethylene tube was inserted into the left external jugular vein, heparin (50 U/kg) was injected, and the other end was inserted into the right common carotid artery. After blood flow was opened for 15 minutes, the blood flow was interrupted and the silk thread was quickly taken out and weighed. The total weight minus the original silk thread weight was the wet weight of the thrombus. The silk thread was placed in an oven for drying at 70°C. The dry weight of the thrombus was obtained by weighing the silk thread minus the original silk thread weight, and the inhibition rate was calculated. [formula] [formula]

[2] = Pharmacokinetics in vivo in rats after gavage; design: species or system SD male rats; settings: rat, p.o. 15 mg/kg (calculated as Compound A), mean value
Method: Eighteen SD male rats (purchased from Weitong Lihua Experimental Animal Technology Co., Ltd., certificate number: 20211103Aazz0619000910), weighing 240-280 g, were randomly divided into 6 groups, with 3 rats in each group. The animals were fasted overnight before administration. On the day of administration, the compounds of Examples 3, 4, 5, 6, Compound A, and Compound A methyl ester were gavaged to the animals in each groups respectively, and the dosage was 15 mg/kg (calculated as Compound A). Before administration and 0.25, 0.5, 1, 2, 4, 6, 8, and 24 h after administration, 0.15 mL of blood was collected from the animals through the jugular sinus and placed in an EDTA-K2 anticoagulant tube containing 3 µL of dichlorvos aqueous solution (10 mg/mL). After centrifugation, plasma was collected, and was placed in the sample, and then 10 µL of plasma sample was taken, 500 µL of acetonitrile containing IS (verapamil 5 ng·mL^-1, glibenclamide 50 ng·mL^-1, tolbutamide 200 ng·mL^-1, and diclofenac 200 ng·mL^-1) was added, vortexed for 10 min, and then centrifuged at 3700 rpm for 10 min, and then 70 µL of supernatant and 70 µL of water were added, and vortexed for 10 min. An aliquot of 2 µL of the mixture was injected into the LC-MS/MS system (Triple Quad 5500+: LC-MS-MS-022) to measure blood concentration of the compounds. […]

[3] = read-out: Inhibition rate (thrombus dry weight)
[4] = read-out: Inhibition rate (thrombus wet weight)

COC(=O)c1ccc(OCCn2ccnc2)c(OC)c1 [Compound A methyl ester, reference compound]
inhibition at 15 mg/kg [1, 3]: 32.4%
inhibition at 15 mg/kg [1, 4]: 29.4%
Thrombus wet weight [1]: 71.3±8.7^★★ mg
Thrombus dry weight [1]: 23.0±8.2^★★ mg
MRTo-t [2]: 6.5 h

COc1cc(C(=O)O)ccc1OCCn1ccnc1 [Compound A]
MRTo-t [2]: 5.4 h

CCCOC(=O)c1ccc(OCCn2ccnc2)c(OC)c1 [Example 1, propyl 4-(2-(1H-imidazol-1-yl)ethoxy)-3-methoxybenzoate]
inhibition at 15 mg/kg [1, 3]: 52.9%
inhibition at 15 mg/kg [1, 4]: 45.9%
Thrombus wet weight [1]: 54.8±12.7^★★*## mg
Thrombus dry weight [1]: 16.0±3.4^★★*## mg

COc1cc(C(=O)OC(C)C)ccc1OCCn1ccnc1.Cl [Example 2, isopropyl 4-(2-(1H-imidazol-1-yl)ethoxy)-3-methoxybenzoate hydrochloride]
inhibition at 15 mg/kg [1, 3]: 54.8%
inhibition at 15 mg/kg [1, 4]: 48.3%
Thrombus wet weight [1]: 52.3±10.5^★★**## mg
Thrombus dry weight [1]: 15.4±5.0^★★*## mg

COc1cc(C(=O)OCCCCCC(=O)O)ccc1OCCn1ccnc1 [Example 3, 6-(4-(2-(1H -imidazol-1-yl)ethoxy)-3-methoxybenzoyloxy)hexanoic acid]
inhibition at 15 mg/kg [1, 3]: 64%
inhibition at 15 mg/kg [1, 4]: 53.3%
Thrombus wet weight [1]: 47.3±6.3^★★**## mg
Thrombus dry weight [1]: 12.3±5.7^★★**## mg

COc1cc(C(=O)OCOC(=O)OC(C)C)ccc1OCCn1ccnc1 [Example 5, ((isopropoxycarbonyl)oxy)methyl-4-(2-(1H -imidazol-1-yl)ethoxy)-3-methoxybenzoate]
inhibition at 15 mg/kg [1, 3]: 55.9%
inhibition at 15 mg/kg [1, 4]: 53.5%
Thrombus wet weight [1]: 47.0±8.7^★★**## mg
Thrombus dry weight [1]: 15.0±4.5^★★*## mg

COc1cc(C(=O)OC(C)OC(C)=O)ccc1OCCn1ccnc1 (stereo not drawn) [Example 6, 1-acetoxyethyl-4-(2-(1H-imidazol-1-yl)ethoxy)-3-methoxybenzoate]
inhibition at 15 mg/kg [1, 3]: 58.1%
inhibition at 15 mg/kg [1, 4]: 55.4%
Thrombus wet weight [1]: 45.1±8.6^★★**## mg
Thrombus dry weight [1]: 14.3±5.0^★★**## mg

COc1cc(C(=O)Nc2ccc(C[C@H](N)C(=O)O)cc2)ccc1OCCn1ccnc1.Cl [Example 7, (S)-4-(4-(2-(1H-imidazol-1-yl)ethoxy)-3-methoxybenzamido)phenylalanine hydrochloride]
inhibition at 15 mg/kg [1, 3]: 52.6%
inhibition at 15 mg/kg [1, 4]: 46.2%
Thrombus wet weight [1]: 54.4±9.8^★★*## mg
Thrombus dry weight [1]: 16.1±3.3^★★*## mg

COc1cc(C(=O)Nc2ccc(C[C@@H](N)C(=O)O)cc2)ccc1OCCn1ccnc1 [Example 8, (R)-3-(4-(4-(2-(1H-imidazol-1-yl)ethoxy)-3-methoxybenzamido)phenyl)-2-propionic acid hydrochloride]
inhibition at 15 mg/kg [1, 3]: 57%
inhibition at 15 mg/kg [1, 4]: 48.6%
Thrombus wet weight [1]: 52.0±13.5^★★**## mg
Thrombus dry weight [1]: 14.6±3.8^★★**## mg

COc1cc(C(=O)Oc2ccc(C[C@H](N)C(=O)O)cc2)ccc1OCCn1ccnc1.Cl [Example 9, (S)-4-(4-(2-(1H-imidazol-1-yl)ethoxy)-3-methoxybenzoyloxy)phenylalanine hydrochloride]
inhibition at 15 mg/kg [1, 3]: 57.4%
inhibition at 15 mg/kg [1, 4]: 49.4%
Thrombus wet weight [1]: 51.1±12.7^★★**## mg
Thrombus dry weight [1]: 14.5±6.2^★★**## mg

COc1cc(C(=O)Oc2ccc(C[C@@H](N)C(=O)O)cc2)ccc1OCCn1ccnc1.Cl [Example 10, (R)-4-(4-(2-(1H-imidazol-1-yl)ethoxy)-3-methoxybenzoyloxy)phenylalanine hydrochloride]
inhibition at 15 mg/kg [1, 3]: 55.1%
inhibition at 15 mg/kg [1, 4]: 47.5%
Thrombus wet weight [1]: 53.1±11.8^★★**## mg
Thrombus dry weight [1]: 15.3±2.8^★★*## mg
